From PubChem BioAssay (NCI)
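Following 48 hours of exposure in 96-well plates, responses at five concentrations were used to interpolate endpoints linearly. The concentration for full growth arrest is given as TGI.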

What was measured:
Test in all cases: DTP human tumour cell line panel, 48 h
SF-295 CNS = test system: SF-295 CNS
KM20L2 colon = test system: KM20L2 colon
HCT-116 colon = test system: HCT-116 colon
SF-268 CNS = test system: SF-268 CNS
IGROV1 ovarian = test system: IGROV1 ovarian
K-562 leukemia = test system: K-562 leukemia
COLO 205 colon = test system: COLO 205 colon
OVCAR-4 ovarian = test system: OVCAR-4 ovarian
U251 CNS = test system: U251 CNS
UACC-62 melanoma = test system: UACC-62 melanoma
HOP-92 NSCLC = test system: HOP-92 NSCLC
DLD-1 colon = test system: DLD-1 colon
MOLT-4 leukemia = test system: MOLT-4 leukemia
786-0 renal = test system: 786-0 renal
HT29 colon = test system: HT29 colon
KM12 colon = test system: KM12 colon
HOP-62 NSCLC = test system: HOP-62 NSCLC
UACC-257 melanoma = test system: UACC-257 melanoma
SK-MEL-2 melanoma = test system: SK-MEL-2 melanoma
OVCAR-5 ovarian = test system: OVCAR-5 ovarian
OVCAR-8 ovarian = test system: OVCAR-8 ovarian
A549 NSCLC = test system: A549 NSCLC
M19-MEL melanoma = test system: M19-MEL melanoma
OVCAR-3 ovarian = test system: OVCAR-3 ovarian
SN12C renal = test system: SN12C renal
SNB-78 CNS = test system: SNB-78 CNS
CCRF-CEM leukemia = test system: CCRF-CEM leukemia
DMS 114 small cell lung = test system: DMS 114 small cell lung
ACHN renal = test system: ACHN renal
SK-MEL-28 melanoma = test system: SK-MEL-28 melanoma
EKVX NSCLC = test system: EKVX NSCLC
SW-620 colon = test system: SW-620 colon
NCI-H522 lung = test system: NCI-H522 lung
SK-OV-3 ovarian = test system: SK-OV-3 ovarian
SR leukemia = test system: SR leukemia
RPMI-8226 leukemia = test system: RPMI-8226 leukemia
TK-10 renal = test system: TK-10 renal
XF 498 CNS = test system: XF 498 CNS
NCI-H23 lung = test system: NCI-H23 lung
SK-MEL-5 melanoma = test system: SK-MEL-5 melanoma
A498 renal = test system: A498 renal
NCI-H226 lung = test system: NCI-H226 lung
UO-31 renal = test system: UO-31 renal
HL-60(TB) leukemia = test system: HL-60(TB) leukemia
LXFL 529 NSCLC = test system: LXFL 529 NSCLC
SNB-19 CNS = test system: SNB-19 CNS
SNB-75 CNS = test system: SNB-75 CNS
M14 melanoma = test system: M14 melanoma
NCI-H460 lung = test system: NCI-H460 lung
CAKI-1 renal = test system: CAKI-1 renal
RXF 393 renal = test system: RXF 393 renal
DMS 273 small cell lung = test system: DMS 273 small cell lung
HCT-15 colon = test system: HCT-15 colon
SF-539 CNS = test system: SF-539 CNS
HCC-2998 colon = test system: HCC-2998 colon
MALME-3M melanoma = test system: MALME-3M melanoma
LOX IMVI melanoma = test system: LOX IMVI melanoma

CC(=O)Oc1c(-c2ccccc2)[nH]c2cc([N+](=O)[O-])c(/C(Cl)=C/c3ccccc3)cc12
TGI (SF-295 CNS): 22.5 µM | TGI (KM20L2 colon): 18.6 µM | TGI (HCT-116 colon): 17.3 µM | TGI (SF-268 CNS): > 100 µM | TGI (IGROV1 ovarian): 65.8 µM | TGI (K-562 leukemia): > 100 µM | TGI (COLO 205 colon): 19.6 µM | TGI (OVCAR-4 ovarian): 39.3 µM | TGI (U251 CNS): 19.8 µM | TGI (UACC-62 melanoma): 19.6 µM | TGI (HOP-92 NSCLC): 18.3 µM | TGI (DLD-1 colon): > 100 µM | TGI (MOLT-4 leukemia): 13.8 µM | TGI (786-0 renal): 25.5 µM | TGI (HT29 colon): 11.1 µM | TGI (KM12 colon): 16.3 µM | TGI (HOP-62 NSCLC): 61.5 µM | TGI (UACC-257 melanoma): 27.7 µM | TGI (SK-MEL-2 melanoma): 30.8 µM | TGI (OVCAR-5 ovarian): 17.7 µM | TGI (OVCAR-8 ovarian): 17.7 µM | TGI (A549 NSCLC): 44.5 µM | TGI (M19-MEL melanoma): 19.4 µM | TGI (OVCAR-3 ovarian): 46.8 µM | TGI (SN12C renal): 19.4 µM | TGI (SNB-78 CNS): 52.6 µM | TGI (CCRF-CEM leukemia): 29.5 µM | TGI (DMS 114 small cell lung): 7.72 µM | TGI (ACHN renal): 46.6 µM | TGI (SK-MEL-28 melanoma): 25.2 µM | TGI (EKVX NSCLC): 59.3 µM | TGI (SW-620 colon): 29.3 µM | TGI (NCI-H522 lung): 18.5 µM | TGI (SK-OV-3 ovarian): 83.9 µM | TGI (SR leukemia): 27.4 µM | TGI (RPMI-8226 leukemia): > 100 µM | TGI (TK-10 renal): 64.4 µM | TGI (XF 498 CNS): 19.3 µM | TGI (NCI-H23 lung): 11.6 µM | TGI (SK-MEL-5 melanoma): 3.75 µM | TGI (A498 renal): 23.6 µM | TGI (NCI-H226 lung): 18.1 µM | TGI (UO-31 renal): 27.6 µM | TGI (HL-60(TB) leukemia): 10.7 µM | TGI (LXFL 529 NSCLC): 18.1 µM | TGI (SNB-19 CNS): 94.2 µM | TGI (SNB-75 CNS): > 100 µM | TGI (M14 melanoma): 23.1 µM | TGI (NCI-H460 lung): 70.2 µM | TGI (CAKI-1 renal): 69.2 µM

Cc1ccc(S(=O)(=O)NCCCN(CCCNS(=O)(=O)c2ccc(C)cc2)S(=O)(=O)c2ccc(C)cc2)cc1
TGI (SF-295 CNS): > 100 µM | TGI (KM20L2 colon): > 100 µM | TGI (HCT-116 colon): > 100 µM | TGI (SF-268 CNS): > 100 µM | TGI (IGROV1 ovarian): > 100 µM | TGI (K-562 leukemia): > 100 µM | TGI (RXF 393 renal): > 100 µM | TGI (COLO 205 colon): > 100 µM | TGI (U251 CNS): > 100 µM | TGI (DMS 273 small cell lung): > 100 µM | TGI (UACC-62 melanoma): > 100 µM | TGI (DLD-1 colon): > 100 µM | TGI (MOLT-4 leukemia): > 100 µM | TGI (786-0 renal): > 100 µM | TGI (KM12 colon): > 100 µM | TGI (HOP-62 NSCLC): > 100 µM | TGI (UACC-257 melanoma): > 100 µM | TGI (OVCAR-8 ovarian): > 100 µM | TGI (A549 NSCLC): > 100 µM | TGI (M19-MEL melanoma): > 100 µM | TGI (OVCAR-3 ovarian): > 100 µM | TGI (HCT-15 colon): > 100 µM | TGI (SN12C renal): > 100 µM | TGI (SNB-78 CNS): > 100 µM | TGI (CCRF-CEM leukemia): > 100 µM | TGI (DMS 114 small cell lung): > 100 µM | TGI (SF-539 CNS): > 100 µM | TGI (ACHN renal): > 100 µM | TGI (HCC-2998 colon): > 100 µM | TGI (SK-MEL-28 melanoma): > 100 µM | TGI (SW-620 colon): > 100 µM | TGI (MALME-3M melanoma): > 100 µM | TGI (NCI-H522 lung): > 100 µM | TGI (SK-OV-3 ovarian): > 100 µM | TGI (SR leukemia): > 100 µM | TGI (RPMI-8226 leukemia): > 100 µM | TGI (TK-10 renal): > 100 µM | TGI (NCI-H23 lung): > 100 µM | TGI (NCI-H226 lung): > 100 µM | TGI (UO-31 renal): > 100 µM | TGI (HL-60(TB) leukemia): > 100 µM | TGI (LXFL 529 NSCLC): > 100 µM | TGI (SNB-19 CNS): > 100 µM | TGI (LOX IMVI melanoma): > 100 µM | TGI (SNB-75 CNS): > 100 µM | TGI (M14 melanoma): > 100 µM | TGI (NCI-H460 lung): > 100 µM
